Assay results as given in patent US20240190880A1 (THE REGENTS OF THE UNIVERSITY OF MICHIGAN, priority 2021, published 2024).

molecular target: T1, ER (Homo sapiens, UniProt P03372); assay: ER degradation activity, in-cell western blot analysis in T47D cells; type: cell-based; settings: 16 hours, Table A does not say which cell line (T47D or MCF7), read-out: Potency (DC50)
T1 construct: host or cells: T47D and MCF7 human breast cancer cells
T1 sequence (P03372 1-595): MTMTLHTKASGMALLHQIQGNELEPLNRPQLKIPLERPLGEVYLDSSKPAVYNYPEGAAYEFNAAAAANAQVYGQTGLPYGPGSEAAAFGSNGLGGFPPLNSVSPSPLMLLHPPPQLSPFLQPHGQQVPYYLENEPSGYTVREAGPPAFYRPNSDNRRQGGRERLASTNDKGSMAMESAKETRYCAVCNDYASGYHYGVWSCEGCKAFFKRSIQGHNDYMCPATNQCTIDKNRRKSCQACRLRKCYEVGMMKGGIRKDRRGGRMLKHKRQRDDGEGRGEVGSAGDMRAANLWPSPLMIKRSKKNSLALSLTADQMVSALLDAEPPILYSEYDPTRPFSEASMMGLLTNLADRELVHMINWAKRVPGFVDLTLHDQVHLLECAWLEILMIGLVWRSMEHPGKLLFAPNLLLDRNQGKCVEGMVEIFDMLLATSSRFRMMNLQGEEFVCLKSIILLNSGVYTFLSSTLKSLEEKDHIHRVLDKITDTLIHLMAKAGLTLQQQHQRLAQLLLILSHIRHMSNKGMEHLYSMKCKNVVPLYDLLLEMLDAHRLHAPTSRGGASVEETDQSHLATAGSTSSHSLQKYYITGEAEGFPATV
How it was run: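 Read-out is near-infrared fluorescence from an in-cell western, expressed as ER percentage relative to untreated and DMSO controls taken as 100%. T47D breast cancer cells received compound for 16 h in 0.5% DMSO.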

Row | Compound | DC50
1 | C[C@@H]1Cc2c([nH]c3ccccc23)[C@@H](c2c(F)cc(N3CCC(C(=O)N4CC(N5Cc6cc7c(cc6C5)C(=O)N(C5CCC(=O)NC5=O)C7=O)C4)CC3)cc2F)N1CC(F)F (stereo partly drawn) [E 235, 6-(1-(1-(4-((1R,3R)-2-(2,2-difluoroethyl)-3-methyl-2,3,4,9-tetrahydro-1H-pyrido[3,4-b]indol-1-yl)-3,5-difluorophenyl)piperidine-4-carbonyl)azetidin-3-yl)-2-(2,6-dioxopiperidin-3-yl)-6,7-dihydropyrrolo[3,4-f]isoindole-1,3(2H,5H)-dione] | > 100 nM
2 | C[C@@H]1Cc2c([nH]c3ccccc23)[C@@H](c2c(F)cc(N3CC(C(=O)N4CCC(N5Cc6cc7c(cc6C5)C(=O)N(C5CCC(=O)NC5=O)C7=O)CC4)C3)cc2F)N1CC(F)F (stereo partly drawn) [E 236, 6-(1-(1-(4-((1R,3R)-2-(2,2-difluoroethyl)-3-methyl-2,3,4,9-tetrahydro-1H-pyrido[3,4-b]indol-1-yl)-3,5-difluorophenyl)azetidine-3-carbonyl)piperidin-4-yl)-2-(2,6-dioxopiperidin-3-yl)-6,7-dihydropyrrolo[3,4-f]isoindole-1,3(2H,5H)-dione] | > 100 nM
3 | C[C@@H]1Cc2c([nH]c3ccccc23)[C@@H](c2c(F)cc(N3CCC(CN4CC(C(=O)N5Cc6cc7c(cc6C5)C(=O)N(C5CCC(=O)NC5=O)C7=O)C4)CC3)cc2F)N1CC(F)F (stereo partly drawn) [E 239, 6-(1-((1-(4-((1R,3R)-2-(2,2-difluoroethyl)-3-methyl-2,3,4,9-tetrahydro-1H-pyrido[3,4-b]indol-1-yl)-3,5-difluorophenyl)piperidin-4-yl)methyl)azetidine-3-carbonyl)-2-(2,6-dioxopiperidin-3-yl)-6,7-dihydropyrrolo[3,4-f]isoindole-1,3(2H,5H)-dione] | > 100 nM
4 | O=C1CCC(N2C(=O)c3cc4c(cc3C2=O)CN(C2CCN(C(=O)C3CCN(c5ccc([C@@H]6c7ccc(O)cc7CC[C@@H]6c6ccccc6)cc5)CC3)CC2)C4)C(=O)N1 (stereo partly drawn) [E 240, 2-(2,6-dioxopiperidin-3-yl)-6-(1-(1-(4-((1R,2S)-6-hydroxy-2-phenyl-1,2,3,4-tetrahydronaphthalen-1-yl)phenyl)piperidine-4-carbonyl)piperidin-4-yl)-6,7-dihydropyrrolo[3,4-f]isoindole-1,3(2H,5H)-dione] | > 100 nM
5 | O=C1CCC(N2C(=O)c3cc4c(cc3C2=O)CN(C2CCN(C(=O)C3(F)CCN(c5ccc([C@@H]6c7ccc(O)cc7CC[C@@H]6c6ccccc6)cc5)CC3)CC2)C4)C(=O)N1 (stereo partly drawn) [E 241, 2-(2,6-dioxopiperidin-3-yl)-6-(1-(4-fluoro-1-(4-((1R,2S)-6-hydroxy-2-phenyl-1,2,3,4-tetrahydronaphthalen-1-yl)phenyl)piperidine-4-carbonyl)piperidin-4-yl)-6,7-dihydropyrrolo[3,4-f]isoindole-1,3(2H,5H)-dione] | > 100 nM
6 | CCC(=C(c1ccc(O)cc1)c1ccc(N2CCC3(CC2)CN(C(=O)CN2Cc4cc5c(cc4C2)C(=O)N(C2CCC(=O)NC2=O)C5=O)C3)cc1)c1ccccc1 (stereo not shown) [E 242, 2-(2,6-dioxopiperidin-3-yl)-6-(2-(7-(4-(1-(4-hydroxyphenyl)-2-phenylbut-1-en-1-yl)phenyl)-2,7-diazaspiro[3.5]nonan-2-yl)-2-oxoethyl)-6,7-dihydropyrrolo[3,4-f]isoindole-1,3(2H,5H)-dione] | 10 to 100 nM
7 | C[C@@H]1Cc2c([nH]c3ccccc23)[C@@H](c2c(F)cc(N3CCC(CN4CCC(N5Cc6cc7c(cc6C5)C(=O)N(C5CCC(=O)NC5=O)C7=O)CC4)CC3)cc2F)N1CC(F)F (stereo partly drawn) [E 251, 6-(1-((1-(4-((1R,3R)-2-(2,2-difluoroethyl)-3-methyl-2,3,4,9-tetrahydro-1H-pyrido[3,4-b]indol-1-yl)-3,5-difluorophenyl)piperidin-4-yl)methyl)piperidin-4-yl)-2-(2,6-dioxopiperidin-3-yl)-6,7-dihydropyrrolo[3,4-f]isoindole-1,3(2H,5H)-dione] | < 10 nM

Now from value to compound:

Row | DC50 | Compound
8 | 10 to 100 nM | C[C@@H]1Cc2c([nH]c3ccccc23)[C@@H](c2c(F)cc(N3CCC(C(=O)N4CC(CN5Cc6cc7c(cc6C5)C(=O)N(C5CCC(=O)NC5=O)C7=O)C4)CC3)cc2F)N1CC(F)F (stereo partly drawn) [E 234, 6-((1-(1-(4-((1R,3R)-2-(2,2-difluoroethyl)-3-methyl-2,3,4,9-tetrahydro-1H-pyrido[3,4-b]indol-1-yl)-3,5-difluorophenyl)piperidine-4-carbonyl)azetidin-3-yl)methyl)-2-(2,6-dioxopiperidin-3-yl)-6,7-dihydropyrrolo[3,4-f]isoindole-1,3(2H,5H)-dione]
9 | > 100 nM | C[C@@H]1Cc2c([nH]c3ccccc23)[C@@H](c2c(F)cc(N3CC(C(=O)N4CCC(CN5Cc6cc7c(cc6C5)C(=O)N(C5CCC(=O)NC5=O)C7=O)CC4)C3)cc2F)N1CC(F)F (stereo partly drawn) [E 237, 6-((1-(1-(4-((1R,3R)-2-(2,2-difluoroethyl)-3-methyl-2,3,4,9-tetrahydro-1H-pyrido[3,4-b]indol-1-yl)-3,5-difluorophenyl)azetidine-3-carbonyl)piperidin-4-yl)methyl)-2-(2,6-dioxopiperidin-3-yl)-6,7-dihydropyrrolo[3,4-f]isoindole-1,3(2H,5H)-dione]
10 | > 100 nM | C[C@@H]1Cc2c([nH]c3ccccc23)[C@@H](c2c(F)cc(N3CCC(CN4CCC(C(=O)N5Cc6cc7c(cc6C5)C(=O)N(C5CCC(=O)NC5=O)C7=O)CC4)CC3)cc2F)N1CC(F)F (stereo partly drawn) [E 238, 6-(1-((1-(4-((1R,3R)-2-(2,2-difluoroethyl)-3-methyl-2,3,4,9-tetrahydro-1H-pyrido[3,4-b]indol-1-yl)-3,5-difluorophenyl)piperidin-4-yl)methyl)piperidine-4-carbonyl)-2-(2,6-dioxopiperidin-3-yl)-6,7-dihydropyrrolo[3,4-f]isoindole-1,3(2H,5H)-dione]
11 | < 10 nM | C[C@@H]1Cc2c([nH]c3ccccc23)[C@@H](c2c(F)cc(N3CCC(C(=O)N4CCC(N5Cc6cc7c(cc6C5)C(=O)N(C5CCC(=O)NC5=O)C7=O)CC4)CC3)cc2F)N1CC(C)(F)F (stereo partly drawn) [E 252, 6-(1-(1-(4-((1R,3R)-2-(2,2-difluoropropyl)-3-methyl-2,3,4,9-tetrahydro-1H-pyrido[3,4-b]indol-1-yl)-3,5-difluorophenyl)piperidine-4-carbonyl)piperidin-4-yl)-2-(2,6-dioxopiperidin-3-yl)-6,7-dihydropyrrolo[3,4-f]isoindole-1,3(2H,5H)-dione]
12 | < 10 nM | C[C@@H]1Cc2c([nH]c3ccccc23)[C@@H](c2c(F)cc(N3CCC4(CCN(C(=O)CN5Cc6cc7c(cc6C5)C(=O)N(C5CCC(=O)NC5=O)C7=O)CC4)CC3)cc2F)N1CC(C)(F)F (stereo partly drawn) [E 253, 6-(2-(9-(4-((1R,3R)-2-(2,2-difluoropropyl)-3-methyl-2,3,4,9-tetrahydro-1H-pyrido[3,4-b]indol-1-yl)-3,5-difluorophenyl)-3,9-diazaspiro[5.5]undecan-3-yl)-2-oxoethyl)-2-(2,6-dioxopiperidin-3-yl)-6,7-dihydropyrrolo[3,4-f]isoindole-1,3(2H,5H)-dione]
13 | < 10 nM | C[C@@H]1Cc2c([nH]c3ccccc23)[C@@H](c2cnc(N3CCC4(CCN(C(=O)CN5Cc6cc7c(cc6C5)C(=O)N(C5CCC(=O)NC5=O)C7=O)CC4)CC3)nc2)N1CC(F)(F)F (stereo partly drawn) [E 254, 2-(2,6-dioxopiperidin-3-yl)-6-(2-(9-(5-((1R,3R)-3-methyl-2-(2,2,2-trifluoroethyl)-2,3,4,9-tetrahydro-1H-pyrido[3,4-b]indol-1-yl)pyrimidin-2-yl)-3,9-diazaspiro[5.5]undecan-3-yl)-2-oxoethyl)-6,7-dihydropyrrolo[3,4-f]isoindole-1,3(2H,5H)-dione]
